Assay results as given in PMC10150354, “Linearization of the Brevicidine and Laterocidine Lipopeptides Yields Analogues That Retain Full Antibacterial Activity” (Journal of Medicinal Chemistry, 2023).
≈ marks a conversion by molar mass, not a printed value. Where a SMILES comes first, the peptide text is derived from it. Bridges are numbered along the chain shown (N, C = ends). [ ]: non-standard residue; d: D form. The star is where a group is joined. ξ: configuration not given here. Octanoyl(7-Me) = CC(C)CCCCCC(=O)*; Hexanoyl(4ξ-Me) = CCC(C)CCC(=O)*; dOrn = NCCC[C@@H](N)C(=O)O; Orn = NCCC[C@H](N)C(=O)O

Assays:
E. coli ATCC 25922 = format: cell-based, Escherichia coli; details: for MIC (µg/mL) against E. coli (ATCC 25922): (Supplement 2); for Antibacterial activity (MIC) E. coli ATCC 25922: microbroth dilution per CLSI, MHB, 18 h at 37 °C, visual inspection, three technical replicates
In short: (§1)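 MIC taken as the lowest concentration with no visible growth after 18 h, 37 °C, shaking, three technical replicates. Peptides were serially diluted in MHB and received cells from TSB cultures at OD600 ~0.5, diluted to 2 × 10^5 CFU/mL (kanamycin selection for the mcr-1 E. coli), following CLSI guidelines.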

E. coli (MCR-1) = format: cell-based, Escherichia coli; details: microbroth dilution per CLSI, MHB, 18 h at 37 °C, visual inspection, three technical replicates, E. coli 25922 carrying mcr-1
In short: as §1

S. aureus USA300 = format: cell-based, Staphylococcus aureus; details: microbroth dilution per CLSI, MHB, 18 h at 37 °C, visual inspection, three technical replicates
In short: as §1

A. baumannii ATCC 17961 = format: cell-based, Acinetobacter baumannii; details: microbroth dilution per CLSI, MHB, 18 h at 37 °C, visual inspection, three technical replicates
In short: as §1

P. aeruginosa PAO1 = format: cell-based, Pseudomonas aeruginosa; details: microbroth dilution per CLSI, MHB, 18 h at 37 °C, visual inspection, three technical replicates
In short: as §1

K. pneumoniae ATCC 13883 = format: cell-based, Klebsiella pneumoniae; details: microbroth dilution per CLSI, MHB, 18 h at 37 °C, visual inspection, three technical replicates
In short: as §1

SMILES | MIC (µg/mL) against E. coli (ATCC 25922) (E. coli ATCC 25922) [µg/mL] | Antibacterial activity (MIC) E. coli ATCC 25922 (E. coli ATCC 25922) [µg/mL] | Antibacterial activity (MIC) E. coli (MCR-1) (E. coli (MCR-1)) [µg/mL] | Antibacterial activity (MIC) S. aureus USA300 (S. aureus USA300) [µg/mL] | Antibacterial activity (MIC) A. baumannii ATCC 17961 (A. baumannii ATCC 17961) [µg/mL] | Antibacterial activity (MIC) P. aeruginosa PAO1 (P. aeruginosa PAO1) [µg/mL] | Antibacterial activity (MIC) K. pneumoniae ATCC 13883 (K. pneumoniae ATCC 13883) [µg/mL]
CC[C@H](C)[C@H](NC(=O)[C@H](CO)NC(=O)[C@H](Cc1c[nH]c2ccccc12)NC(=O)[C@@H](CCCN)NC(=O)CNC(=O)[C@H](CCCN)NC(=O)[C@@H](CCCN)NC(=O)[C@@H](Cc1c[nH]c2ccccc12)NC(=O)[C@@H](Cc1ccc(O)cc1)NC(=O)[C@@H](CO)NC(=O)CCCCCC(C)C)C(=O)N[C@@H](CC(N)=O)C(=O)NCC(=O)NCC(N)=O [LL(Ser9)-NH2 (46)] ({Octanoyl(7-Me)}-[dS][dY][dW][dOrn][Orn]G[dOrn]WSINGG-NH2) | 4 (≈ 2.49 µM) | 4 | 8 | >32 | 8 | 4 | 4
CC[C@H](C)[C@H](NC(=O)[C@H](Cc1c[nH]c2ccccc12)NC(=O)[C@H](Cc1c[nH]c2ccccc12)NC(=O)[C@@H](CCCN)NC(=O)CNC(=O)[C@H](CCCN)NC(=O)[C@@H](CCCN)NC(=O)[C@@H](Cc1c[nH]c2ccccc12)NC(=O)[C@@H](Cc1ccc(O)cc1)NC(=O)[C@@H](CO)NC(=O)CCCCCC(C)C)C(=O)N[C@@H](CC(N)=O)C(=O)NCC(=O)NCC(N)=O [LL(Trp9)-NH2 (45)] ({Octanoyl(7-Me)}-[dS][dY][dW][dOrn][Orn]G[dOrn]WWINGG-NH2) | 4 (≈ 2.34 µM) | 4 | 4 | >32 | 4 | 16 | 4
CC[C@H](C)[C@H](NC(=O)[C@@H](NC(=O)[C@H](Cc1c[nH]c2ccccc12)NC(=O)[C@@H](CCCN)NC(=O)CNC(=O)[C@H](CCCN)NC(=O)[C@@H](CCCN)NC(=O)[C@@H](Cc1c[nH]c2ccccc12)NC(=O)[C@@H](Cc1ccc(O)cc1)NC(=O)[C@@H](CO)NC(=O)CCCCCC(C)C)[C@@H](C)O)C(=O)N[C@@H](CC(N)=O)C(=O)NCC(=O)NCC(=O)O [LL-OH (4)] ({Octanoyl(7-Me)}-[dS][dY][dW][dOrn][Orn]G[dOrn]WTINGG-OH) | – | 8 | 16 | >32 | 16 | 8 | 8 to 16
CC[C@H](C)[C@@H]1NC(=O)[C@@H](NC(=O)[C@H](Cc2c[nH]c3ccccc23)NC(=O)[C@@H](CCCN)NC(=O)CNC(=O)[C@H](CCCN)NC(=O)[C@@H](CCCN)NC(=O)[C@@H](Cc2c[nH]c3ccccc23)NC(=O)[C@@H](Cc2ccc(O)cc2)NC(=O)[C@@H](CO)NC(=O)CCCCCC(C)C)[C@@H](C)OC(=O)CNC(=O)CNC(=O)[C@H](CC(N)=O)NC1=O [Lat (2), laterocidine] ({Octanoyl(7-Me)}-[dS][dY][dW][dOrn][Orn]G[dOrn]WTINGG; ester 9-C) | – | 2 | 2 | >32 | 2 | 4 | 2 to 4
CCC(C)CCC(=O)N[C@H](CC(N)=O)C(=O)N[C@H](Cc1ccc(O)cc1)C(=O)N[C@H](Cc1c[nH]c2ccccc12)C(=O)N[C@H](CCCN)C(=O)N[C@@H](CCCN)C(=O)NCC(=O)N[C@H](CCCN)C(=O)N[C@@H](Cc1c[nH]c2ccccc12)C(N)=O (stereo partly drawn) [Δ9–12LB-NH2 (15)] ({Hexanoyl(4ξ-Me)}-[dN][dY][dW][dOrn][Orn]G[dOrn]W-NH2) | – | >32 | >32 | >32 | >32 | >32 | >32
CC(C)CCCCCC(=O)N[C@H](CO)C(=O)N[C@H](Cc1ccc(O)cc1)C(=O)N[C@H](Cc1c[nH]c2ccccc12)C(=O)N[C@H](CCCN)C(=O)N[C@@H](CCCN)C(=O)NCC(=O)N[C@H](CCCN)C(=O)N[C@@H](Cc1c[nH]c2ccccc12)C(N)=O [Δ9–13LL-NH2 (16)] ({Octanoyl(7-Me)}-[dS][dY][dW][dOrn][Orn]G[dOrn]W-NH2) | – | >32 | >32 | >32 | 32 | >32 | >32
CCC(C)CCC(=O)N[C@H](CC(N)=O)C(=O)N[C@H](Cc1ccc(O)cc1)C(=O)N[C@H](Cc1c[nH]c2ccccc12)C(=O)N[C@H](CCCN)C(=O)N[C@@H](CCCN)C(=O)NCC(=O)N[C@H](CCCN)C(=O)N[C@@H](Cc1c[nH]c2ccccc12)C(=O)N[C@H](C(N)=O)[C@@H](C)O (stereo partly drawn) [Δ10–12LB-NH2 (13)] ({Hexanoyl(4ξ-Me)}-[dN][dY][dW][dOrn][Orn]G[dOrn]WT-NH2) | – | >32 | >32 | >32 | >32 | >32 | >32
CC(C)CCCCCC(=O)N[C@H](CO)C(=O)N[C@H](Cc1ccc(O)cc1)C(=O)N[C@H](Cc1c[nH]c2ccccc12)C(=O)N[C@H](CCCN)C(=O)N[C@@H](CCCN)C(=O)NCC(=O)N[C@H](CCCN)C(=O)N[C@@H](Cc1c[nH]c2ccccc12)C(=O)N[C@H](C(N)=O)[C@@H](C)O [Δ10–13LL-NH2 (14)] ({Octanoyl(7-Me)}-[dS][dY][dW][dOrn][Orn]G[dOrn]WT-NH2) | – | >32 | 32 | >32 | 32 | >32 | >32
CCC(C)CCC(=O)N[C@H](CC(N)=O)C(=O)N[C@H](Cc1ccc(O)cc1)C(=O)N[C@H](Cc1c[nH]c2ccccc12)C(=O)N[C@H](CCCN)C(=O)N[C@@H](CCCN)C(=O)NCC(=O)N[C@H](CCCN)C(=O)N[C@@H](Cc1c[nH]c2ccccc12)C(=O)N[C@H](C(=O)N[C@H](C(N)=O)[C@@H](C)CC)[C@@H](C)O (stereo partly drawn) [Δ11–12LB-NH2 (11)] ({Hexanoyl(4ξ-Me)}-[dN][dY][dW][dOrn][Orn]G[dOrn]WTI-NH2) | – | 4 | 4 to 8 | >32 | 8 | 2 | 2
CC[C@H](C)[C@H](NC(=O)[C@@H](NC(=O)[C@H](Cc1c[nH]c2ccccc12)NC(=O)[C@@H](CCCN)NC(=O)CNC(=O)[C@H](CCCN)NC(=O)[C@@H](CCCN)NC(=O)[C@@H](Cc1c[nH]c2ccccc12)NC(=O)[C@@H](Cc1ccc(O)cc1)NC(=O)[C@@H](CO)NC(=O)CCCCCC(C)C)[C@@H](C)O)C(N)=O [Δ11–13LL-NH2 (12)] ({Octanoyl(7-Me)}-[dS][dY][dW][dOrn][Orn]G[dOrn]WTI-NH2) | – | 4 | 4 | 32 | 4 | 4 | 2
CCC(C)CCC(=O)N[C@H](CC(N)=O)C(=O)N[C@H](Cc1ccc(O)cc1)C(=O)N[C@H](Cc1c[nH]c2ccccc12)C(=O)N[C@H](CCCN)C(=O)N[C@@H](CCCN)C(=O)NCC(=O)N[C@H](CCCN)C(=O)N[C@@H](Cc1c[nH]c2ccccc12)C(=O)N[C@@H](CC(N)=O)C(=O)N[C@H](C(=O)NCC(N)=O)[C@@H](C)CC (stereo partly drawn) [Δ12LB (Asn9)-NH2 (58)] ({Hexanoyl(4ξ-Me)}-[dN][dY][dW][dOrn][Orn]G[dOrn]WNIG-NH2) | 4 (≈ 2.73 µM) | 8 | 8 | >32 | 16 | 2 | 16
